# According to patent US8664221B2 (Santen Pharmaceutical Co., Ltd., priority 2008, dated 2014):
# Test system: IL-6 production induced by lipopolysaccharide (LPS) in human corneal epithelial cells (HCE-T)
# Assay: Inhibition of LPS-induced IL-6 production in human corneal epithelial cells (GR agonist activity)
# Type: cell-based
# Settings: Corneal epithelial cell, 10 μL of 100 μM test compound solution per well, 4 hours incubation, efficacy relative to DEX
# Description: In order to evaluate a GR agonist activity of the present compound, the inhibitory effects on the IL-6 production induced by lipopolysaccharide (LPS) in human corneal epithelial cells. IL-6 levels in the conditioned medium were measured using the HTRF human IL-6 Kit (boehringer-Ingelheim, Cat No. 62IL6PEB), and the procedure was carried out according to the protocol attached to the kit. Hereinafter, the specific method will be described.
# LPS solution: After LPS was dissolved in phosphate buffer solution (hereinafter referred to as PBS(−)), the resulting solution was diluted with 10% FBS-DMEM/F12 medium, whereby a 1 μg/mL LPS solution was prepared.
# After a test compound was dissolved in dimethylsulfoxide (hereinafter referred to as DMSO), the resulting solution was diluted with 10% FBS-DMEM/F12 medium, whereby a 100 μM test compound solution was prepared. A 100 μM DEX solution was prepared by the same method, and the inhibitory ratio of IL-6 production of DEX was evaluated to use for calculating efficacy (% DEX).
# Used cell: SV40-immortalized human corneal epithelial cells (HCE-T) (RIKEN)
# 1) HCE-T cells were harvested, and seeded at 2.0×10^4 cells/0.1 mL/well in a 96-well plate.
# 2) After incubation overnight, the medium was removed and a 80 μL of new 10% FBS-DMEM/Ham's F12 medium was added into each well.
# 3) A 10 μL of test compounds solution was added into each well.
# 4) A 10 μL of LPS solution was added into each well.
# 5) As a negative control, a 10 μL of 10% FBS-DMEM/Ham's F12 medium was added into each well instead of a test compound solution and a LPS solution.
# 6) As a positive control, a 10 μL of 10% FBS-DMEM/Ham's F12 medium containing 1% DMSO was added into each well instead of a test compound solution.
# 7) After 4 hours incubation, supernatants were collected and IL-6 levels in the supernatants were quantitated using the HTRF human IL-6 Kit.
# 8) The inhibition ratio of IL-6 production (%) was calculated according to the following equation.
# The inhibition ratio of IL-6 production (%) was calculated according to the following equation. The inhibition ratio of IL-6 production (%)=100×{1−(IL-6 level in each group−mean value of IL-6 level in negative control)/(mean value of IL-6 level in positive control−mean value of IL-6 level in negative control)} (%)
# Furthermore, the inhibition ratio of IL-6 production (efficacy (% DEX)) was also calculated according to the following equation. Efficacy(% DEX)=100×{(mean value of IL-6 inhibition in compound-treated group)/(mean value of IL-6 inhibition in DEX-treated group)} (%) (Results and Discussion)
row,Compound,Emax [%]
1,"COc1cc(OS(C)(=O)=O)ccc1-c1ccc2c(c1COC(=O)c1ccc(C)s1)N(C)C(=O)C(C)(C)N2 [Compound No. 1-3, 7-(2-Methoxy-4-methylsulfonyloxyphenyl)-8-(5-methylthiophen-2-ylcarbonyloxymethyl)-1,3,3-trimethyl-3,4-dihydro-1H-quinoxalin-2-one]",70
2,"COc1cc(OS(=O)(=O)Cc2ccccc2Cl)ccc1-c1ccc2c(c1COc1cc(F)ccc1C)N(C)C(=O)C(C)(C)N2 [Compound No. 1-14, 7-[4-(2-Chlorobenzylsulfonyloxy)-2-methoxyphenyl]-8-(5-fluoro-2-methylphenoxymethyl)-1,3,3-trimethyl-3,4-dihydro-1H-quinoxalin-2-one]",86
3,"COc1cc(OS(=O)(=O)Cc2ccccc2C)ccc1-c1ccc2c(c1COc1cc(F)ccc1C)N(C)C(=O)C(C)(C)N2 [Compound No. 1-15, 8-(5-Fluoro-2-methylphenoxymethyl)-7-[2-methoxy-4-(2-methylbenzyl-sulfonyloxy)phenyl]-1,3,3-trimethyl-3,4-dihydro-IH-quinoxalin-2-one]",88
4,"COc1cc(OS(=O)(=O)C2CCCCC2)ccc1-c1ccc2c(c1COc1cc(F)ccc1C)N(C)C(=O)C(C)(C)N2 [Compound No. 1-17, 7-(4-Cyclohexylsulfonyloxy-2-methoxyphenyl)-8-(5-fluoro-2-methylphenoxymethyl)-1,3,3-trimethyl-3,4-dihydro-1H-quinoxalin-2-one]",83
5,"COc1cc(OS(=O)(=O)C2CC2)ccc1-c1ccc2c(c1COC(=O)c1ccc(C)s1)N(C)C(=O)C(C)(C)N2 [Compound No. 1-19, 7-(4-Cyclopropylsulfonyloxy-2-methoxyphenyl)-8-(5-methyl-thiophen-2-ylcarbonyloxymethyl)-1,3,3-trimethyl-3,4-dihydro-1H-quinoxalin-2-one]",88
6,"COc1cc(OS(=O)(=O)CCC(F)(F)F)ccc1-c1ccc2c(c1COC(=O)c1ccc(C)s1)N(C)C(=O)C(C)(C)N2 [Compound No. 1-20, 7-[2-Methoxy-4-(3,3,3-trifluoropropylsulfonyloxy)phenyl]-8-(5-methylthiophen-2-ylcarbonyloxymethyl)-1,3,3-trimethyl-3,4-dihydro-1H-quinoxalin-2-one]",74
7,"COc1cc(OS(=O)(=O)CC(C)C)ccc1-c1ccc2c(c1COC(=O)c1ccc(C)s1)N(C)C(=O)C(C)(C)N2 [Compound No. 1-21, 7-(4-Isobutylsulfonyloxy-2-methoxyphenyl)-8-(5-methylthiophen-2-ylcarbonyloxymethyl)-1,3,3-trimethyl-3,4-dihydro-1H-quinoxalin-2-one]",71
8,"COc1cc(OS(=O)(=O)C2CCCC2)ccc1-c1ccc2c(c1COC(=O)c1ccc(C)s1)N(C)C(=O)C(C)(C)N2 [Compound No. 1-24, 7-(4-Cyclopentylsulfonyloxy-2-methoxyphenyl)-8-(5-methylthiophen-2-ylcarbonyloxymethyl)-1,3,3-trimethyl-3,4-dihydro-1H-quinoxalin-2-one]",85
9,"COc1ccc([N+](=O)[O-])cc1OCc1c(-c2ccc(OS(=O)(=O)C3CC3)cc2OC)ccc2c1N(C)C(=O)C(C)(C)N2 [Compound No. 1-30, 7-(4-Cyclopropylsulfonyloxy-2-methoxyphenyl)-8-(2-methoxy-5-nitrophenoxymethyl)-1,3,3-trimethyl-3,4-dihydro-1H-quinoxalin-2-one]",74
10,"CCCS(=O)(=O)Oc1ccc(-c2ccc3c(c2COc2cc([N+](=O)[O-])ccc2OC)N(C)C(=O)C(C)(C)N3)c(OC)c1 [Compound No. 1-31, 8-(2-Methoxy-5-nitrophenoxymethyl)-7-(2-methoxy-4-propyl-sulfonyloxyphenyl)-1,3,3-trimethyl-3,4-dihydro-1H-quinoxalin-2-one]",76
11,"COc1cc(OS(=O)(=O)C(C)C)ccc1-c1ccc2c(c1COc1cc([N+](=O)[O-])ccc1C)N(C)C(=O)C(C)(C)N2 [Compound No. 1-35, 7-(4-Isopropylsulfonyloxy-2-methoxyphenyl)-8-(2-methyl-5-nitro-phenoxymethyl)-1,3,3-trimethyl-3,4-dihydro-1H-quinoxalin-2-one]",79
12,"COc1cc(OS(C)(=O)=O)ccc1-c1ccc2c(c1COc1cc([N+](=O)[O-])ccc1C)N(C)C(=O)C(C)(C)N2 [Compound No. 1-36, 7-(2-Methoxy-4-methylsulfonyloxyphenyl)-8-(2-methyl-5-nitro-phenoxymethyl)-1,3,3-trimethyl-3,4-dihydro-1H-quinoxalin-2-one]",72
13,"COc1cc(OS(=O)(=O)C2CCCC2)ccc1-c1ccc2c(c1COc1cc([N+](=O)[O-])ccc1C)N(C)C(=O)C(C)(C)N2 [Compound No. 1-37, 7-(4-Cyclopentylsulfonyloxy-2-methoxyphenyl)-8-(2-methyl-5-nitrophenoxymethyl)-1,3,3-trimethyl-3,4-dihydro-1H-quinoxalin-2-one]",74
14,"CCCS(=O)(=O)Oc1ccc(-c2ccc3c(c2COC(=O)c2ccc(C)cc2)N(C)C(=O)C(C)(C)N3)c(OC)c1 [Compound No. 1-39, 7-(2-Methoxy-4-propylsulfonyloxyphenyl)-8-(4-methylbenzoyloxy-methyl)-1,3,3-trimethyl-3,4-dihydro-1H-quinoxalin-2-one]",80
15,"COc1cc(OS(=O)(=O)CCCCl)ccc1-c1ccc2c(c1COc1cc(F)ccc1C)N(C)C(=O)C(C)(C)N2 [Compound No. 1-40, 7-[4-(3-Chloropropylsulfonyloxy)-2-methoxyphenyl]-8-(5-fluoro-2-methylphenoxymethyl)-1,3,3-trimethyl-3,4-dihydro-1H-quinoxalin-2-one]",84
16,"COc1cc(OS(=O)(=O)CCl)ccc1-c1ccc2c(c1COc1cc(F)ccc1C)N(C)C(=O)C(C)(C)N2 [Compound No. 1-41, 7-(4-Chloromethylsulfonyloxy-2-methoxyphenyl)-8-(5-fluoro-2-methylphenoxymethyl)-1,3,3-trimethyl-3,4-dihydro-1H-quinoxalin-2-one]",85
17,"COc1cc(OS(=O)(=O)CCCNCc2ccccc2)ccc1-c1ccc2c(c1COc1cc(F)ccc1C)N(C)C(=O)C(C)(C)N2 [Compound No. 3-1, 7-[4-(3-Benzylaminopropylsulfonyloxy)-2-methoxyphenyl]-8-(5-fluoro-2-methylphenoxymethyl)-1,3,3-trimethyl-3,4-dihydro-1H-quinoxalin-2-one]",78
18,"CCCNCCCS(=O)(=O)Oc1ccc(-c2ccc3c(c2COc2cc(F)ccc2C)N(C)C(=O)C(C)(C)N3)c(OC)c1 [Compound No. 3-2, 8-(5-Fluoro-2-methylphenoxymethyl)-7-[2-methoxy-4-(3-propylaminopropyl-sulfonyloxy)phenyl]-1,3,3-trimethyl-3,4-dihydro-1H-quinoxalin-2-one]",70
19,"COc1cc(OS(=O)(=O)CCCN2CCOCC2)ccc1-c1ccc2c(c1COc1cc(F)ccc1C)N(C)C(=O)C(C)(C)N2 [Compound No. 3-3, 8-(5-Fluoro-2-methylphenoxymethyl)-7-[2-methoxy-4-[3-(morpholin-4-yl)propylsulfonyloxy]phenyl]-1,3,3-trimethyl-3,4-dihydro-1H-quinoxalin-2-one]",85
